≈ marks a conversion by molar mass, not a printed value.
Legend:
[1] = system: Mycobacterium tuberculosis; assay: Growth inhibition of Mycobacterium tuberculosis H37Rv at 6.25 ug/mL by microplate alamar blue assay; assay type: functional; details: read-out: GI
Vero = assay: Cytotoxicity against Vero cells; assay type: cell-based; details: Chlorocebus sabaeus
[2] = system: Mycobacterium tuberculosis; assay: Antituberculosis activity against Mycobacterium tuberculosis H37Rv by microplate alamar blue assay; assay type: functional

| SMILES | inhibition of growth at 6.25 µg/mL [1] | IC50 (Vero) | MIC [2] |
| --- | --- | --- | --- |
| O=C1/C(=N\NC(=S)Nc2ccc(Cl)cc2)c2cc([N+](=O)[O-])ccc2N1CN1CCCCC1 | 54% |  |  |
| CCNC(=S)N/N=C1\C(=O)Nc2ccc([N+](=O)[O-])cc21 | 0% |  |  |
| C=CCNC(=S)N/N=C1\C(=O)N(CN2CCOCC2)c2ccc(F)cc21 | 24% |  |  |
| O=C1/C(=N\NC(=S)NC2CCCCC2)c2cc([N+](=O)[O-])ccc2N1CN1CCCCC1 | 87% |  |  |
| O=C1Nc2ccc([N+](=O)[O-])cc2/C1=N/N=C1/SCC(=O)N1c1ccc(F)cc1 | 0% |  |  |
| CCN1C(=O)CS/C1=N/N=C1\C(=O)Nc2ccc([N+](=O)[O-])cc21 | 0% |  |  |
| CCCCNC(=S)N/N=C1\C(=O)Nc2ccc([N+](=O)[O-])cc21 | 42% |  |  |
| O=C1Nc2ccc([N+](=O)[O-])cc2/C1=N/N=C1/SCC(=O)N1C1CCCCC1 | 0% |  |  |
| CN1C(=O)CS/C1=N/N=C1\C(=O)Nc2ccc([N+](=O)[O-])cc21 | 0% |  |  |
| C=CCNC(=S)N/N=C1\C(=O)N(CN2CCCCC2)c2ccc(F)cc21 | 20% |  |  |
| O=C1/C(=N\NC(=S)Nc2ccc(F)cc2)c2cc(F)ccc2N1CN1CCOCC1 | 48% |  |  |
| O=C1/C(=N\NC(=S)Nc2ccc(Cl)cc2)c2cc(F)ccc2N1CN1CCOCC1 | 58% |  |  |
| O=C1Nc2ccc([N+](=O)[O-])cc2/C1=N/N=C1/SCC(=O)N1c1ccccc1 | 0% |  |  |
| O=C1/C(=N\NC(=S)Nc2ccccc2)c2cc(F)ccc2N1CN1CCCCC1 | 45% |  |  |
| Cc1ccc(NC(=S)N/N=C2\C(=O)N(CN3CCCCC3)c3ccc(F)cc32)cc1 | 51% |  |  |
| CC1S/C(=N/N=C2\C(=O)Nc3ccc([N+](=O)[O-])cc32)N(c2ccc(F)cc2)C1=O (configuration not stated) | 5% |  |  |
| O=C1Nc2ccc([N+](=O)[O-])cc2/C1=N/NC(=S)Nc1ccc(Br)cc1 | 90% | 2.59 µg/mL (≈ 6.16 µM) | > 6.25 µg/mL |
| O=C1Nc2ccc(F)cc2/C1=N/NC(=S)Nc1ccccc1 | 61% |  |  |
| CCCCNC(=S)N/N=C1\C(=O)Nc2ccc(F)cc21 | 16% |  |  |
| O=C1/C(=N\NC(=S)Nc2ccc(F)cc2)c2cc(F)ccc2N1CN1CCCCC1 | 38% |  |  |
| CCCCN1C(=O)CS/C1=N/N=C1\C(=O)Nc2ccc([N+](=O)[O-])cc21 | 0% |  |  |
| Cc1ccc(NC(=S)N/N=C2\C(=O)Nc3ccc([N+](=O)[O-])cc32)cc1 | 93% | 2.45 µg/mL (≈ 6.89 µM) | 6.25 µg/mL (≈ 17.6 µM) |
| CNC(=S)N/N=C1\C(=O)N(CN2CCOCC2)c2ccc([N+](=O)[O-])cc21 | 96% | 7.61 µg/mL (≈ 20.1 µM) | > 6.25 µg/mL |

| SMILES | inhibition of growth at 6.25 µg/mL [1] | IC50 (Vero) | MIC [2] |
| --- | --- | --- | --- |
| CC1S/C(=N/N=C2\C(=O)Nc3ccc([N+](=O)[O-])cc32)N(c2ccc(Br)cc2)C1=O (configuration not stated) | 3% |  |  |
| C=CCN1C(=O)C(C)S/C1=N/N=C1\C(=O)Nc2ccc([N+](=O)[O-])cc21 (configuration not stated) | 3% |  |  |
| CCNC(=S)N/N=C1\C(=O)N(CN2CCCCC2)c2ccc(F)cc21 | 2% |  |  |
| O=C1/C(=N\NC(=S)Nc2ccccc2)c2cc(F)ccc2N1CN1CCOCC1 | 56% |  |  |
| CNC(=S)N/N=C1\C(=O)N(CN2CCCCC2)c2ccc(F)cc21 | 20% |  |  |
| C=CCN1C(=O)CS/C1=N/N=C1\C(=O)Nc2ccc([N+](=O)[O-])cc21 | 2% |  |  |
| C=CCNC(=S)N/N=C1\C(=O)Nc2ccc(F)cc21 | 30% |  |  |
| O=C1/C(=N\NC(=S)NC2CCCCC2)c2cc([N+](=O)[O-])ccc2N1CN1CCOCC1 | 90% |  | 6.25 µg/mL (≈ 14 µM) |
| O=C1/C(=N\NC(=S)Nc2ccc(Cl)cc2)c2cc([N+](=O)[O-])ccc2N1CN1CCOCC1 | 65% |  |  |
| Cc1ccc(NC(=S)N/N=C2\C(=O)N(CN3CCOCC3)c3ccc([N+](=O)[O-])cc32)cc1 | 92% | 17 µg/mL (≈ 37.4 µM) | > 6.25 µg/mL |
| O=C1/C(=N\NC(=S)Nc2ccccc2)c2cc([N+](=O)[O-])ccc2N1CN1CCCCC1 | 31% |  |  |
| CCNC(=S)N/N=C1\C(=O)N(CN2CCOCC2)c2ccc(F)cc21 | 1% |  |  |
| CC1S/C(=N/N=C2\C(=O)Nc3ccc([N+](=O)[O-])cc32)N(c2ccc(Cl)cc2)C1=O (configuration not stated) | 0% |  |  |
| O=C1/C(=N\NC(=S)NC2CCCCC2)c2cc(F)ccc2N1CN1CCOCC1 | 33% |  |  |
| C=CCNC(=S)N/N=C1\C(=O)Nc2ccc([N+](=O)[O-])cc21 | 25% |  |  |
| O=C1Nc2ccc([N+](=O)[O-])cc2/C1=N/NC(=S)Nc1ccccc1 | 33% |  |  |
| O=C1Nc2ccc(F)cc2/C1=N/NC(=S)Nc1ccc(F)cc1 | 58% |  |  |
| O=C1Nc2ccc(F)cc2/C1=N/NC(=S)NC1CCCCC1 | 39% |  |  |
| O=C1/C(=N\NC(=S)Nc2ccc(Cl)cc2)c2cc(F)ccc2N1CN1CCCCC1 | 63% |  |  |
| O=C1Nc2ccc([N+](=O)[O-])cc2/C1=N/N=C1/SCC(=O)N1c1ccc(Cl)cc1 | 0% |  |  |
| O=C1Nc2ccc([N+](=O)[O-])cc2/C1=N/NC(=S)Nc1ccc(Cl)cc1 | 75% |  |  |
| O=C1/C(=N\NC(=S)Nc2ccccc2)c2cc([N+](=O)[O-])ccc2N1CN1CCOCC1 | 93% | 2.8 µg/mL (≈ 6.36 µM) | > 6.25 µg/mL |
| CCCCNC(=S)N/N=C1\C(=O)N(CN2CCOCC2)c2ccc([N+](=O)[O-])cc21 | 30% |  |  |

| SMILES | inhibition of growth at 6.25 µg/mL [1] | IC50 (Vero) | MIC [2] |
| --- | --- | --- | --- |
| Cc1ccc(N2C(=O)C(C)S/C2=N/N=C2\C(=O)Nc3ccc([N+](=O)[O-])cc32)cc1 (configuration not stated) | 0% |  |  |
| O=C1Nc2ccc(F)cc2/C1=N/NC(=S)Nc1ccc(Cl)cc1 | 37% |  |  |
| CO[C@H]1/C=C/O[C@@]2(C)Oc3c(C)c(O)c4c(O)c(c(/C=N/N5CCN(C)CC5)c(O)c4c3C2=O)NC(=O)/C(C)=C\C=C\[C@H](C)[C@H](O)[C@@H](C)[C@@H](O)[C@@H](C)[C@H](OC(C)=O)[C@@H]1C [RIFAMPIN] | 97% | > 100 µg/mL | 0.125 µg/mL (≈ 0.152 µM) |
| Cc1ccc(NC(=S)N/N=C2\C(=O)Nc3ccc(F)cc32)cc1 | 36% |  |  |
| O=C1Nc2ccc([N+](=O)[O-])cc2/C1=N/NC(=S)Nc1ccc(F)cc1 | 24% |  |  |
| O=C1/C(=N\NC(=S)NCc2ccccc2)c2cc(F)ccc2N1CN1CCCCC1 | 3% |  |  |
| Cc1ccc(N2C(=O)CS/C2=N/N=C2\C(=O)Nc3ccc([N+](=O)[O-])cc32)cc1 | 17% |  |  |
| O=C1/C(=N\NC(=S)NCc2ccccc2)c2cc(F)ccc2N1CN1CCOCC1 | 0% |  |  |
| O=C1Nc2ccc(F)cc2/C1=N/NC(=S)Nc1ccc([N+](=O)[O-])cc1 | 31% |  |  |
| CC1S/C(=N/N=C2\C(=O)Nc3ccc([N+](=O)[O-])cc32)N(c2ccccc2)C1=O (configuration not stated) | 9% |  |  |
| CCCCNC(=S)N/N=C1\C(=O)N(CN2CCOCC2)c2ccc(F)cc21 | 34% |  |  |
| CC1S/C(=N/N=C2\C(=O)Nc3ccc([N+](=O)[O-])cc32)N(c2ccc([N+](=O)[O-])cc2)C1=O (configuration not stated) | 9% |  |  |
| C=CCNC(=S)N/N=C1\C(=O)N(CN2CCCCC2)c2ccc([N+](=O)[O-])cc21 | 22% |  |  |
| Cc1ccc(NC(=S)N/N=C2\C(=O)N(CN3CCCCC3)c3ccc([N+](=O)[O-])cc32)cc1 | 88% |  |  |
| O=C1Nc2ccc([N+](=O)[O-])cc2/C1=N/NC(=S)Nc1ccc([N+](=O)[O-])cc1 | 2% |  |  |
| CNC(=S)N/N=C1\C(=O)N(CN2CCOCC2)c2ccc(F)cc21 | 12% |  |  |
| CCNC(=S)N/N=C1\C(=O)Nc2ccc(F)cc21 | 8% |  |  |
| CC1S/C(=N/N=C2\C(=O)Nc3ccc([N+](=O)[O-])cc32)N(C2CCCCC2)C1=O (configuration not stated) | 28% |  |  |
| O=C1Nc2ccc([N+](=O)[O-])cc2/C1=N/N=C1/SCC(=O)N1c1ccc(Br)cc1 | 0% |  |  |
| CCCCN1C(=O)C(C)S/C1=N/N=C1\C(=O)Nc2ccc([N+](=O)[O-])cc21 (configuration not stated) | 10% |  |  |
| O=C1Nc2ccc([N+](=O)[O-])cc2/C1=N/NC(=S)NC1CCCCC1 | 90% | 4.74 µg/mL (≈ 13.6 µM) | > 6.25 µg/mL |

Reference: ChEMBL document CHEMBL1143733, “Synthesis and structure-antituberculosis activity relationship of 1H-indole-2,3-dione derivatives” (Bioorg Med Chem, 2007)
